Data reported in patent publication US11452728B2, “7-aminocephalosporanic acid derivative as inhibitor of IL15 and IL-2 activity” (Warszawski Uniwersytet Medyczny, priority 2013, dated 2022).

How the values were obtained:
[1] = system: IL-15-induced IL-17 synthesis in PBMC; experiment: IL-15-induced IL-17 synthesis in PBMC (ELISA); assay type: cell-based, human
Description: (§1) All experiments were carried out on peripheral blood mononuclear cells (PBMC) from healthy donors. The cells were isolated under the standard protocol regarding density gradient centrifugation. According to the general protocol, 6 ml of blood was layered on 3 ml of Lymphoprep (Axis-shield, Norway), then centrifuged at 800×g for 15 min. The layer of PBMC was collected, the cells were washed twice with phosphate buffered saline (PBS) (BIOMED-LUBLIN, Poland) and suspended in medium RPMI1640 (Gibco, Great Britain), containing 10 mM HEPES (Sigma, USA), 10% fetal calf serum (BIOMED-LUBLIN, Poland) and antibiotic (streptomycin sulfate, penicillin G sodium; amphotericin B, PAA, Austria).
(§2) In all the in vitro experiments non-stimulated PBMC were used as the control. The inhibition efficacy was assessed in relation to the cells stimulated with IL-15 or IL-2. […]
(§3) PBMC were seeded in a 24-well plate (2×10^6 cells in 1 ml of the culture medium/well), treated with the inhibitor, after 30 min. stimulated with IL-15 (5 ng/ml) or IL-2 (5 ng/ml). After 48 hr incubation, the culture medium was collected from each well to determine the IL-17 concentration, cells were harvested and lysed, and the concentration of total protein was measured in cell lysates. The obtained values of IL-17 concentration were calculated for 1 mg of protein. […]

IL-15-stimulated PBMC = experiment: IL-15-induced PBMC proliferation (BrdU Cell Proliferation Assay); assay type: cell-based, human; settings: IL-15 5 ng/ml; Cefazolin 20, 100, 300 μM; 4 days; repeated three times, different donors
Description: (§4) All experiments were carried out on peripheral blood mononuclear cells (PBMC) from healthy donors. The cells were isolated under the standard protocol regarding density gradient centrifugation. According to the general protocol, 6 ml of blood was layered on 3 ml of Lymphoprep (Axis-shield, Norway), then centrifuged at 800×g for 15 min. The layer of PBMC was collected, the cells were washed twice with phosphate buffered saline (PBS) (BIOMED-LUBLIN, Poland) and suspended in medium RPMI1640 (Gibco, Great Britain), containing 10 mM HEPES (Sigma, USA), 10% fetal calf serum (BIOMED-LUBLIN, Poland) and antibiotic (streptomycin sulfate, penicillin G sodium; amphotericin B, PAA, Austria). In all the in vitro experiments non-stimulated PBMC were used as the control. The inhibition efficacy was assessed in relation to the cells stimulated with IL-15 or IL-2. PBMC proliferation was evaluated using commercially available BrdU Cell Proliferation Assay (Calbiochem, Merck, Germany). PBMC were seeded in a 96-well plate (25×10^3 cells in 200 μL of the culture medium/well). The next day the cells were treated with the tested compound at final concentrations: 20 μM, 100 μM and 300 μM. […] The results are expressed as the percentage change of proliferating cells with regard to the control cells stimulated with IL-15 or IL-2. […]

[2] = system: IL-2-induced IL-17 synthesis in PBMC; experiment: IL-2-induced IL-17 synthesis in PBMC (ELISA); assay type: cell-based, human; settings: IL-2 5 ng/ml; 48 h; Cefazolin 300 μM
Description: as §1, §2, §3

Gram-positive bacteria = settings: cited from earlier work
[3] = cited from earlier work
[4] = system: IL-2-induced TNF-α synthesis in PBMC; experiment: IL-2-induced TNF-α synthesis in PBMC (ELISA); assay type: cell-based, human; settings: IL-2 5 ng/ml; 48 h; Cefazolin 300 μM; vs IL-2 stimulated control cells
Description: as §1, §2
as §3, with “The PBMC” for “PBMC”, “tested compound and” for “inhibitor,”, “min” for “min.”, “h” for “hr”, “TNF-α” for “IL-17”

[5] = system: IL-15-induced TNF-α synthesis in PBMC; experiment: IL-15-induced TNF-α synthesis in PBMC (ELISA); assay type: cell-based, human; settings: IL-15 5 ng/ml; 48 h; Cefazolin 20-1000 μM; vs IL-15 stimulated control cells
Description: as §1, §2
as §3, with “The PBMC” for “PBMC”, “tested compound and” for “inhibitor,”, “min” for “min.”, “h” for “hr”, “TNF-α” for “IL-17”

IL-2-stimulated PBMC = experiment: IL-2-induced PBMC proliferation (BrdU Cell Proliferation Assay); assay type: cell-based, human; settings: IL-2 5 ng/ml; Cefazolin 20, 100, 300 μM; 4 days; repeated three times, different donors
Description: as §4

## Cc1nnc(SCC2=C(C(=O)O)N3C(=O)[C@@H](NC(=O)Cn4cnnn4)[C@H]3SC2)s1 [Cefazolin]
[1]; IL-15 5 ng/ml, 48 h, Cefazolin 20-1000 μM, vs IL-15 stimulated control cells
  effect on IL-15-induced IL-17 synthesis in PBMC: significantly reduces
[1]; increase of concentration from 200 μM to 1000 μM
  effect of increasing Cefazolin concentration on IL-15-induced IL-17 synthesis: does not affect IL-17 synthesis to any great extent
IL-15-stimulated PBMC
  effect on IL-15-induced PBMC proliferation: inhibits
[2]
  effect on IL-2-induced IL-17 synthesis in PBMC: Strong inhibitory effect
Gram-positive bacteria
  bactericidal activity against Gram-positive bacteria: Potent bactericidal activity
PBMC
  cytotoxic or apoptotic activity on PBMC: does not trigger the apoptotic pathway
[3]; in vivo
  crossing of the blood brain barrier: does not cross the blood brain barrier
[3]; urine, glomerular filtration
  excreted in urine of unchanged structure, share of the excreted amount: 90%
[4]
  effect on IL-2-induced TNF-α synthesis in PBMC: significantly reduces
[5]
  effect on IL-15-induced TNF-α synthesis in PBMC: significantly reduces
IL-2-stimulated PBMC
  effect on IL-2-induced PBMC proliferation: inhibits
